Tested on: 415267-285-R-J2-PDC complex spheroid viability
Assay: Anticancer human tumor 415267-285-R-J2-PDC patient-derived breast carcinoma cell line growth inhibition [POLQ]
Conditions: for IC50: curve of first compound; for viability, T/C: stronger effect = lower value
Procedure, shortened: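 Patient-derived tumour cells were co-cultured with HUVEC and mesenchymal stem cells as multicellular spheroids at 37 °C. They were treated with POLQ inhibitors (novobiocin, ART-558, RP6685) alone or combined with other agents. Top concentrations were at or near clinical Cmax (otherwise 10 microM; SN-38 at 1 microM), decreasing in half-log steps.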

[1] = second compound 0.0316 µM, first compound 0.0316 µM
[2] = second compound 0.0316 µM, first compound 0.1 µM
[3] = second compound 0.0316 µM, first compound 0.316 µM
[4] = second compound 0.0316 µM, first compound 1 µM
[5] = second compound 0.1 µM, first compound 0.0316 µM
[6] = second compound 0.1 µM, first compound 0.1 µM
[7] = second compound 0.1 µM, first compound 0.316 µM
[8] = second compound 0.1 µM, first compound 1 µM
[9] = second compound 0.316 µM, first compound 0.0316 µM
[10] = second compound 0.316 µM, first compound 0.1 µM
[11] = second compound 0.316 µM, first compound 0.316 µM
[12] = second compound 0.316 µM, first compound 1 µM
[13] = second compound 1 µM, first compound 0.0316 µM
[14] = second compound 1 µM, first compound 0.1 µM
[15] = second compound 1 µM, first compound 0.316 µM
[16] = second compound 1 µM, first compound 1 µM
[17] = second compound 3.16 µM, first compound 0.0316 µM
[18] = second compound 3.16 µM, first compound 0.1 µM
[19] = second compound 3.16 µM, first compound 0.316 µM
[20] = second compound 3.16 µM, first compound 1 µM
[21] = second compound 10 µM, first compound 0.0316 µM
[22] = second compound 10 µM, first compound 0.1 µM
[23] = second compound 10 µM, first compound 0.316 µM
[24] = second compound 10 µM, first compound 1 µM
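Note: spheroids exposed to compounds for one week before readout.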
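Throughout, for viability, T/C: luminescence used as stand-in measure of viable cells; 100% = DMSO vehicle control viability.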

C=CCn1c(=O)c2cnc(Nc3ccc(N4CCN(C)CC4)cc3)nc2n1-c1cccc(C(C)(C)O)n1 + Cc1cccc(N(C)C(=O)C2C(O)CCN2c2nc(C)cc(C(F)(F)F)c2C#N)c1
IC50 (second compound 0.0316 µM): 444 nM | IC50 (second compound 0.1 µM): 475 nM | IC50 (second compound 0.316 µM): 460 nM | IC50 (second compound 1 µM): 486 nM | IC50 (second compound 3.16 µM): 452 nM | IC50 (second compound 10 µM): 425 nM | viability, T/C (second compound 0.0316 µM, first compound 0.00316 µM): 103% | viability, T/C (second compound 0.0316 µM, first compound 0.01 µM): 102% | viability, T/C [1]: 104% | viability, T/C [2]: 116% | viability, T/C [3]: 67.6% | viability, T/C [4]: 8% | viability, T/C (second compound 0.1 µM, first compound 0.00316 µM): 96.6% | viability, T/C (second compound 0.1 µM, first compound 0.01 µM): 102% | viability, T/C [5]: 106% | viability, T/C [6]: 112% | viability, T/C [7]: 73.6% | viability, T/C [8]: 6.74% | viability, T/C (second compound 0.316 µM, first compound 0.00316 µM): 103% | viability, T/C (second compound 0.316 µM, first compound 0.01 µM): 105% | viability, T/C [9]: 109% | viability, T/C [10]: 94.5% | viability, T/C [11]: 71% | viability, T/C [12]: 7.48% | viability, T/C (second compound 1 µM, first compound 0.00316 µM): 103% | viability, T/C (second compound 1 µM, first compound 0.01 µM): 103% | viability, T/C [13]: 107% | viability, T/C [14]: 108% | viability, T/C [15]: 76.1% | viability, T/C [16]: 6.25% | viability, T/C (second compound 3.16 µM, first compound 0.00316 µM): 102% | viability, T/C (second compound 3.16 µM, first compound 0.01 µM): 109% | viability, T/C [17]: 108% | viability, T/C [18]: 123% | viability, T/C [19]: 69% | viability, T/C [20]: 7.86% | viability, T/C (second compound 10 µM, first compound 0.00316 µM): 108% | viability, T/C (second compound 10 µM, first compound 0.01 µM): 106% | viability, T/C [21]: 122% | viability, T/C [22]: 114% | viability, T/C [23]: 64.1% | viability, T/C [24]: 9.37%

COc1cccc2c1C(=O)c1c(O)c3c(c(O)c1C2=O)CC(O)(C(=O)CO)CC3OC1CC(N)C(O)C(C)O1 (centres undefined) + COC1C(OC(N)=O)C(O)C(Oc2ccc3c(O)c(NC(=O)c4ccc(O)c(CC=C(C)C)c4)c(=O)oc3c2C)OC1(C)C
IC50 (second compound 0.0316 µM): 44.6 nM | IC50 (second compound 0.1 µM): 37.5 nM | IC50 (second compound 0.316 µM): 35.2 nM | IC50 (second compound 1 µM): < 31.6 nM | IC50 (second compound 3.16 µM): 39 nM | IC50 (second compound 10 µM): 44 nM | viability, T/C [1]: 66.1% | viability, T/C [2]: 12.3% | viability, T/C [3]: 5.33% | viability, T/C [4]: 1.27% | viability, T/C (second compound 0.0316 µM, first compound 3.16 µM): 0.99% | viability, T/C (second compound 0.0316 µM, first compound 10 µM): 3% | viability, T/C [5]: 55.7% | viability, T/C [6]: 17.9% | viability, T/C [7]: 5.82% | viability, T/C [8]: 0.96% | viability, T/C (second compound 0.1 µM, first compound 3.16 µM): 1.01% | viability, T/C (second compound 0.1 µM, first compound 10 µM): 2.7% | viability, T/C [9]: 54.2% | viability, T/C [10]: 12% | viability, T/C [11]: 4.95% | viability, T/C [12]: 0.99% | viability, T/C (second compound 0.316 µM, first compound 3.16 µM): 0.89% | viability, T/C (second compound 0.316 µM, first compound 10 µM): 2.53% | viability, T/C [13]: 48.8% | viability, T/C [14]: 11.6% | viability, T/C [15]: 5.43% | viability, T/C [16]: 1.06% | viability, T/C (second compound 1 µM, first compound 3.16 µM): 1.03% | viability, T/C (second compound 1 µM, first compound 10 µM): 2.68% | viability, T/C [17]: 58.4% | viability, T/C [18]: 12.5% | viability, T/C [19]: 4.68% | viability, T/C [20]: 1.06% | viability, T/C (second compound 3.16 µM, first compound 3.16 µM): 1.25% | viability, T/C (second compound 3.16 µM, first compound 10 µM): 2.55% | viability, T/C [21]: 63.9% | viability, T/C [22]: 16% | viability, T/C [23]: 5.78% | viability, T/C [24]: 1.44% | viability, T/C (second compound 10 µM, first compound 3.16 µM): 1.38% | viability, T/C (second compound 10 µM, first compound 10 µM): 3.32%

— PubChem BioAssay AID1963847 (Molecular Pharmacology Branch, DTP, NCI, 2024)
